Test results reported in paper PMC6331819, “Identification of N-Acetyldopamine Dimers from the Dung Beetle Catharsius molossus and Their COX-1 and COX-2 Inhibitory Activities” (Molecules, 2015).

Experiments:
COX-2 = target: T1, COX-2 (Homo sapiens, UniProt P35354); experiment: Cayman COX Fluorescent Inhibitor Screening Assay Kit; assay type: biochemical
T1 construct: gene PTGS2
T1 sequence (P35354 18-604): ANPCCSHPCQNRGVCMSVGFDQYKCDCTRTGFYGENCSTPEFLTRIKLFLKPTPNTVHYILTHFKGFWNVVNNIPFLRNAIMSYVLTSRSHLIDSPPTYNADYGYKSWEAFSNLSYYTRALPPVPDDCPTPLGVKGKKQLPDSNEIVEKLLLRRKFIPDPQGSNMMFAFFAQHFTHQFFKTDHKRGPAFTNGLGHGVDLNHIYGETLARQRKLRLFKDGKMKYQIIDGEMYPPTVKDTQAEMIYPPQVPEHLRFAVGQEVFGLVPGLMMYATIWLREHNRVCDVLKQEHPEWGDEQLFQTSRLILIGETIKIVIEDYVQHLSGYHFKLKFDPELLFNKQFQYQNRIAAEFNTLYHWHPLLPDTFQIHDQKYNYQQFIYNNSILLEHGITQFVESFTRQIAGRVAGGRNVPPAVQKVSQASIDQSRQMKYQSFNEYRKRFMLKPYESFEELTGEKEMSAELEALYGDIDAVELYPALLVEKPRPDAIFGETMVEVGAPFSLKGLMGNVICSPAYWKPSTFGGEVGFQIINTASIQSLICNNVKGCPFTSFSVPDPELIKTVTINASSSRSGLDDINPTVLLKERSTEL

COX-1 = target: T2, COX-1 (Ovis aries, UniProt P05979); experiment: as above; assay type: biochemical
T2 construct: gene PTGS1
T2 sequence (P05979 25-600): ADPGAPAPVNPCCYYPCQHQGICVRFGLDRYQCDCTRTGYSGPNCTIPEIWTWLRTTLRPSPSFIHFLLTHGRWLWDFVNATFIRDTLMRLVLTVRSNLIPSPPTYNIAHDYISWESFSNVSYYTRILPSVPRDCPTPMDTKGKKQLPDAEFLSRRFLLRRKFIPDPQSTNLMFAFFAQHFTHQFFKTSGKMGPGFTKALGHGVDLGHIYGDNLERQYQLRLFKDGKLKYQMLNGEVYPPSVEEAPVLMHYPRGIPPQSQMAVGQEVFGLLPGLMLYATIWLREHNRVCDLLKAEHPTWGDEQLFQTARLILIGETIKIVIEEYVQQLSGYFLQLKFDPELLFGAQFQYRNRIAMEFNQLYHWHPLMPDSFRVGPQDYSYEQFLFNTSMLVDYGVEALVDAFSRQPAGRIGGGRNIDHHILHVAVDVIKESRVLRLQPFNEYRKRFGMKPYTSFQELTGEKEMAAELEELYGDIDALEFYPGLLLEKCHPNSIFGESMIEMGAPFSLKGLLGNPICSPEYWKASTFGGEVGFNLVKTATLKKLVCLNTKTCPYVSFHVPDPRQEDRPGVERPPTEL

CC(=O)N/C=C/c1ccc2c(c1)O[C@H](c1ccc(O)c(O)c1)[C@H](NC(C)=O)O2 (racemic) [compound 4, cis-2-(3′,4′-dihydroxyphenyl)-3-acetylamino-7-(N-acetyl-2″-amino-ethylene)-1,4-benzodioxane]
IC50 (COX-2): 6.43 µM | IC50 (COX-1): 78.8 µM
